COc1c2occc2c(OC)c2c(=O)cc(C)oc12
solubility (mole fraction)
Settings	in DMSO	in ethanol	in isopropanol	in methanol	in n-butanol	in water
298.15 K	0.0128	0.00255	0.00195	0.00271	0.00355	1.33e-05
303.15 K	0.0131	0.00282	0.002	0.00272	0.00375	1.23e-05
308.15 K	0.0131	0.00298	0.00209	0.003	0.00372	1.88e-05
313.15 K	0.0132	0.00311	0.00228	0.00314	0.00399	1.88e-05
318.15 K	0.0141	0.00338	0.00233	0.00318	0.00435	3.69e-05
323.15 K	0.0152	0.00338	0.00253	0.00332	0.00529	9.02e-05

Settings	solubility (mole fraction)
in PEG-200, 298.15 K	0.00171
in PEG-200, 303.15 K	0.00149
in PEG-200, 308.15 K	0.00173
in PEG-200, 313.15 K	0.00199
in PEG-200, 318.15 K	0.00202
in PEG-200, 323.15 K	0.00231
in PEG-400, 298.15 K	0.00438
in PEG-400, 303.15 K	0.00425
in PEG-400, 308.15 K	0.00448
in PEG-400, 313.15 K	0.00453
in PEG-400, 318.15 K	0.00448
in PEG-400, 323.15 K	0.00511

Source: BigSolDB 2.1
